Source: patent publication US20260125360A1, “HERBICIDAL IMIDAZOLE COMPOUNDS” (SYNGENTA CROP PROTECTION AG, priority 2022, published 2026)

Key:
Assay type in all cases: in vivo
Settings in all cases: 250 g/ha, evaluated after 13 days
[1] = system: Ipomoea hederacea (IPOHE); experiment: Pre-emergence herbicide glasshouse test
Outline: (§1)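 Damage rated 13 days after spraying on a five-point scale (1=0–20% … 5=81–100%). Compound applied at 250 g/ha by default, as aqueous spray from acetone/water 50:50 plus 0.5% Tween 20, to pots one day post-sowing (pre) or after 8 days of growth (post). Plants kept at 24/16 °C, 14 h light, 65% humidity, watered twice daily.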

[2] = system: Echinochloa crus-galli (ECHCG); experiment: Pre-emergence herbicide glasshouse test
Outline: as §1

[3] = system: Amaranthus palmeri (AMAPA); experiment: Pre-emergence herbicide glasshouse test
Outline: as §1

[4] = system: Amaranthus retoflexus (AMARE); experiment: Pre-emergence herbicide glasshouse test
Outline: as §1

[5] = system: Ipomoea hederacea (IPOHE); experiment: Post-emergence herbicide glasshouse test
Outline: as §1

[6] = system: Echinochloa crus-galli (ECHCG); experiment: Post-emergence herbicide glasshouse test
Outline: as §1

[7] = system: Amaranthus palmeri (AMAPA); experiment: Post-emergence herbicide glasshouse test
Outline: as §1

[8] = system: Amaranthus retoflexus (AMARE); experiment: Post-emergence herbicide glasshouse test
Outline: as §1

Compound: Cc1cc(Cn2cc(C(F)(F)F)nc2-c2cnc(F)c(Cl)c2)no1 [Compound 1.163]
- percentage damage caused to the plant, IPOHE (five-point scale) [1]: 5 (5=81-100%)
- percentage damage caused to the plant, ECHCG (five-point scale) [2]: 5 (5=81-100%)
- percentage damage caused to the plant, AMAPA (five-point scale) [3]: 5 (5=81-100%)
- percentage damage caused to the plant, AMARE (five-point scale) [4]: 5 (5=81-100%)
- percentage damage caused to the plant, IPOHE (five-point scale) [5]: 4 (4=61-80%)
- percentage damage caused to the plant, ECHCG (five-point scale) [6]: 5 (5=81-100%)
- percentage damage caused to the plant, AMAPA (five-point scale) [7]: 5 (5=81-100%)
- percentage damage caused to the plant, AMARE (five-point scale) [8]: 5 (5=81-100%)

Compound: Cc1nnc(Cn2cc(C(F)(F)F)nc2-c2cnc(F)c(Cl)c2)s1 [Compound 1.164]
- percentage damage caused to the plant, IPOHE (five-point scale) [1]: 5 (5=81-100%)
- percentage damage caused to the plant, ECHCG (five-point scale) [2]: 4 (4=61-80%)
- percentage damage caused to the plant, AMAPA (five-point scale) [3]: 5 (5=81-100%)
- percentage damage caused to the plant, AMARE (five-point scale) [4]: 5 (5=81-100%)
- percentage damage caused to the plant, IPOHE (five-point scale) [5]: 3 (3=41-60%)
- percentage damage caused to the plant, ECHCG (five-point scale) [6]: 2 (2=21-40%)
- percentage damage caused to the plant, AMAPA (five-point scale) [7]: 4 (4=61-80%)
- percentage damage caused to the plant, AMARE (five-point scale) [8]: 5 (5=81-100%)

Compound: Cn1cnc(Cn2cc(C(F)(F)F)nc2-c2cnc(F)c(Cl)c2)n1 [Compound 1.165]
- percentage damage caused to the plant, IPOHE (five-point scale) [1]: 5 (5=81-100%)
- percentage damage caused to the plant, ECHCG (five-point scale) [2]: 5 (5=81-100%)
- percentage damage caused to the plant, AMAPA (five-point scale) [3]: 5 (5=81-100%)
- percentage damage caused to the plant, AMARE (five-point scale) [4]: 5 (5=81-100%)
- percentage damage caused to the plant, IPOHE (five-point scale) [5]: 5 (5=81-100%)
- percentage damage caused to the plant, ECHCG (five-point scale) [6]: 5 (5=81-100%)
- percentage damage caused to the plant, AMAPA (five-point scale) [7]: 5 (5=81-100%)
- percentage damage caused to the plant, AMARE (five-point scale) [8]: 5 (5=81-100%)

Compound: Cc1noc(Cn2cc(C(F)(F)F)nc2-c2cnc(Cl)c(F)c2)n1 [Compound 1.166]
- percentage damage caused to the plant, IPOHE (five-point scale) [1]: 5 (5=81-100%)
- percentage damage caused to the plant, ECHCG (five-point scale) [2]: 1 (1=0-20%)
- percentage damage caused to the plant, AMAPA (five-point scale) [3]: 5 (5=81-100%)
- percentage damage caused to the plant, AMARE (five-point scale) [4]: 5 (5=81-100%)
- percentage damage caused to the plant, IPOHE (five-point scale) [5]: 2 (2=21-40%)
- percentage damage caused to the plant, ECHCG (five-point scale) [6]: 1 (1=0-20%)
- percentage damage caused to the plant, AMAPA (five-point scale) [7]: 4 (4=61-80%)
- percentage damage caused to the plant, AMARE (five-point scale) [8]: 4 (4=61-80%)

Compound: Cc1nc(Cn2cc(C(F)(F)F)nc2-c2cnc(Cl)c(F)c2)no1 [Compound 1.167]
- percentage damage caused to the plant, IPOHE (five-point scale) [1]: 5 (5=81-100%)
- percentage damage caused to the plant, ECHCG (five-point scale) [2]: 5 (5=81-100%)
- percentage damage caused to the plant, AMAPA (five-point scale) [3]: 5 (5=81-100%)
- percentage damage caused to the plant, AMARE (five-point scale) [4]: 5 (5=81-100%)
- percentage damage caused to the plant, IPOHE (five-point scale) [5]: 4 (4=61-80%)
- percentage damage caused to the plant, ECHCG (five-point scale) [6]: 5 (5=81-100%)
- percentage damage caused to the plant, AMAPA (five-point scale) [7]: 5 (5=81-100%)
- percentage damage caused to the plant, AMARE (five-point scale) [8]: 5 (5=81-100%)

Compound: Cc1nc(Cn2cc(C(F)(F)F)nc2-c2ccc(F)c(F)c2)no1 [Compound 1.168]
- percentage damage caused to the plant, IPOHE (five-point scale) [1]: 5 (5=81-100%)
- percentage damage caused to the plant, ECHCG (five-point scale) [2]: 5 (5=81-100%)
- percentage damage caused to the plant, AMAPA (five-point scale) [3]: 5 (5=81-100%)
- percentage damage caused to the plant, AMARE (five-point scale) [4]: 5 (5=81-100%)
- percentage damage caused to the plant, IPOHE (five-point scale) [5]: 5 (5=81-100%)
- percentage damage caused to the plant, ECHCG (five-point scale) [6]: 5 (5=81-100%)
- percentage damage caused to the plant, AMAPA (five-point scale) [7]: 5 (5=81-100%)
- percentage damage caused to the plant, AMARE (five-point scale) [8]: 5 (5=81-100%)

Compound: Cc1noc(Cn2cc(C(F)(F)F)nc2-c2ccc(F)c(F)c2)n1 [Compound 1.169]
- percentage damage caused to the plant, IPOHE (five-point scale) [1]: 5 (5=81-100%)
- percentage damage caused to the plant, ECHCG (five-point scale) [2]: 4 (4=61-80%)
- percentage damage caused to the plant, AMAPA (five-point scale) [3]: 5 (5=81-100%)
- percentage damage caused to the plant, AMARE (five-point scale) [4]: 5 (5=81-100%)
- percentage damage caused to the plant, IPOHE (five-point scale) [5]: 3 (3=41-60%)
- percentage damage caused to the plant, ECHCG (five-point scale) [6]: 3 (3=41-60%)
- percentage damage caused to the plant, AMAPA (five-point scale) [7]: 5 (5=81-100%)
- percentage damage caused to the plant, AMARE (five-point scale) [8]: 5 (5=81-100%)

Compound: Cn1cnc(Cn2cc(C(F)(F)F)nc2-c2ccc(S(C)(=O)=O)cc2)n1 [Compound 1.170]
- percentage damage caused to the plant, IPOHE (five-point scale) [1]: 5 (5=81-100%)
- percentage damage caused to the plant, ECHCG (five-point scale) [2]: 4 (4=61-80%)
- percentage damage caused to the plant, AMAPA (five-point scale) [3]: 5 (5=81-100%)
- percentage damage caused to the plant, AMARE (five-point scale) [4]: 5 (5=81-100%)
- percentage damage caused to the plant, IPOHE (five-point scale) [5]: 3 (3=41-60%)
- percentage damage caused to the plant, ECHCG (five-point scale) [6]: 2 (2=21-40%)
- percentage damage caused to the plant, AMAPA (five-point scale) [7]: 5 (5=81-100%)
- percentage damage caused to the plant, AMARE (five-point scale) [8]: 5 (5=81-100%)

Compound: Cn1ccc(Cn2cc(C(F)(F)F)nc2-c2ccc(S(C)(=O)=O)cc2)n1 [Compound 1.171]
- percentage damage caused to the plant, IPOHE (five-point scale) [1]: 3 (3=41-60%)
- percentage damage caused to the plant, ECHCG (five-point scale) [2]: 1 (1=0-20%)
- percentage damage caused to the plant, AMAPA (five-point scale) [3]: 4 (4=61-80%)
- percentage damage caused to the plant, AMARE (five-point scale) [4]: 4 (4=61-80%)
- percentage damage caused to the plant, IPOHE (five-point scale) [5]: 2 (2=21-40%)
- percentage damage caused to the plant, ECHCG (five-point scale) [6]: 1 (1=0-20%)
- percentage damage caused to the plant, AMAPA (five-point scale) [7]: 1 (1=0-20%)
- percentage damage caused to the plant, AMARE (five-point scale) [8]: 1 (1=0-20%)

Compound: CCON=Cc1cn(Cc2ncn(C)n2)c(-c2cnc(Cl)c(F)c2)n1 [Compound 1.172]
- percentage damage caused to the plant, IPOHE (five-point scale) [1]: 5 (5=81-100%)
- percentage damage caused to the plant, ECHCG (five-point scale) [2]: 5 (5=81-100%)
- percentage damage caused to the plant, AMAPA (five-point scale) [3]: 5 (5=81-100%)
- percentage damage caused to the plant, AMARE (five-point scale) [4]: 5 (5=81-100%)
- percentage damage caused to the plant, IPOHE (five-point scale) [5]: 2 (2=21-40%)
- percentage damage caused to the plant, ECHCG (five-point scale) [6]: 2 (2=21-40%)
- percentage damage caused to the plant, AMAPA (five-point scale) [7]: 2 (2=21-40%)
- percentage damage caused to the plant, AMARE (five-point scale) [8]: 3 (3=41-60%)

Compound: Fc1ccc(-c2nc(C(F)(F)F)cn2Cc2ccc(Cl)s2)cc1F [Compound 1.173]
- percentage damage caused to the plant, IPOHE (five-point scale) [1]: 1 (1=0-20%)
- percentage damage caused to the plant, ECHCG (five-point scale) [2]: 1 (1=0-20%)
- percentage damage caused to the plant, AMAPA (five-point scale) [3]: 5 (5=81-100%)
- percentage damage caused to the plant, AMARE (five-point scale) [4]: 5 (5=81-100%)
- percentage damage caused to the plant, IPOHE (five-point scale) [5]: 1 (1=0-20%)
- percentage damage caused to the plant, ECHCG (five-point scale) [6]: 2 (2=21-40%)
- percentage damage caused to the plant, AMAPA (five-point scale) [7]: 4 (4=61-80%)
- percentage damage caused to the plant, AMARE (five-point scale) [8]: 5 (5=81-100%)

Compound: Fc1cc(-c2nc(C(F)(F)F)cn2Cc2ccc(Cl)s2)cnc1Cl [Compound 1.174]
- percentage damage caused to the plant, IPOHE (five-point scale) [1]: 1 (1=0-20%)
- percentage damage caused to the plant, ECHCG (five-point scale) [2]: 1 (1=0-20%)
- percentage damage caused to the plant, AMAPA (five-point scale) [3]: 5 (5=81-100%)
- percentage damage caused to the plant, AMARE (five-point scale) [4]: 5 (5=81-100%)
- percentage damage caused to the plant, IPOHE (five-point scale) [5]: 2 (2=21-40%)
- percentage damage caused to the plant, ECHCG (five-point scale) [6]: 1 (1=0-20%)
- percentage damage caused to the plant, AMAPA (five-point scale) [7]: 5 (5=81-100%)
- percentage damage caused to the plant, AMARE (five-point scale) [8]: 5 (5=81-100%)

Compound: CS(=O)(=O)c1ccc(-c2nc(C(F)(F)F)cn2Cc2ccc(Cl)s2)cc1 [Compound 1.175]
- percentage damage caused to the plant, IPOHE (five-point scale) [1]: 1 (1=0-20%)
- percentage damage caused to the plant, ECHCG (five-point scale) [2]: 2 (2=21-40%)
- percentage damage caused to the plant, AMAPA (five-point scale) [3]: 4 (4=61-80%)
- percentage damage caused to the plant, AMARE (five-point scale) [4]: 5 (5=81-100%)
- percentage damage caused to the plant, IPOHE (five-point scale) [5]: 2 (2=21-40%)
- percentage damage caused to the plant, ECHCG (five-point scale) [6]: 1 (1=0-20%)
- percentage damage caused to the plant, AMAPA (five-point scale) [7]: 4 (4=61-80%)
- percentage damage caused to the plant, AMARE (five-point scale) [8]: 4 (4=61-80%)
